According to patent US11076595B2, “1-(n,n-disubstituted carbamoyl) 4-(substituted sulfonyl)triazolin-5-one derivative, 4-(n,n-disubstituted carbamoyl) 1-(substituted sulfonyl)triazolin-5-one derivative, and herbicide containing said derivative as active ingredient” (HOKKO CHEMICAL INDUSTRY CO., LTD., priority 2017, dated 2021):

Columns and labels:
Type in all cases: in vivo
Monochoria vaginalis [1] = assay: Test Example 11: herbicidal effect test by soil treatment in paddy field; conditions: 120 g/10a active ingredient, 14 days after treatment
Summary of the method: (§1)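 Pre-emergence flooded-paddy test: the water-diluted emulsifiable concentrate, 120 g active ingredient per 10 are, was dripped into pots immediately after seeding, with water held at about 3 cm. Two replicate pots per rate; 14 days after treatment, plant dry weight versus untreated pots gave the weed suppression rate.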

Scirpus juncoides [2] = assay: as above; conditions: 120 g/10a active ingredient, 14 days after treatment
Summary of the method: as §1

Echinochloa crus-galli [3] = assay: as above; conditions: 120 g/10a active ingredient, 14 days after treatment
Summary of the method: as §1

Lindernia pyxidaria [4] = assay: as above; conditions: 120 g/10a active ingredient, 14 days after treatment
Summary of the method: as §1

crabgrass = assay: Test Example 14: herbicidal effect test by foliage treatment in upland field; conditions: 7 days after sowing, 120 g/10a, 14 days after treatment
Experimental: (§2) A pot having a size of 36 cm^2 was filled with field soil (alluvial soil) and after uniformly mixing the soil of the surface layer of 1 cm with 20 grains of each weed seed of crabgrass, Echinochloa crus-galli, Chenopodium album and Amaranthus viridis, the surface layer was pressed lightly. Seven Days after the sowing, an emulsifiable concentrate prepared according to Formulation Example 15 by using the compound shown in Table 12 below was diluted with water, and the water-diluted formulation was sprayed on the soil surface at a ratio of 100 liter per 10 are. The application rate of the active ingredient, by conversion, corresponded to 120 g per 10 are. Fourteen Days after the formulation treatment, the herbicidal effect was evaluated by the same criteria as in Test Example 11.

Chenopodium album = assay: as above; conditions: 7 days after sowing, 120 g/10a, 14 days after treatment
Experimental: as §2

Amaranthus viridis = assay: as above; conditions: 7 days after sowing, 120 g/10a, 14 days after treatment
Experimental: (§3) This test was performed with two replications per one formulation concentration plot, and 14 days after the formulation treatments, the weed suppression rate (%) was determined according to the following equation (Math. 2). Weed suppression rate (%)=(1−average dry weight (g) of plants in treated plots/average dry weight (g) of plants in untreated plots)×100 [Math. 2]
as §2

Echinochloa crus-galli [5] = assay: as above; conditions: 7 days after sowing, 120 g/10a, 14 days after treatment
Experimental: as §3, §2

Monochoria vaginalis [6] = assay: Test Example 12: herbicidal effect test by treatment during growing period in paddy field; conditions: 120 g/10a; treatment seven days after sowing in flooded paddy pot; assessed 14 days after treatment
Summary of the method: (§4)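 Paddy soil + NPK 17:17:17, puddled; 30 seeds/species sown 0–1 cm; flooded ~3 cm, greenhouse. Day 7 post-sowing: EC diluted in water, applied dropwise into water, 120 g a.i./10 are. Day 14 post-treatment: dry weight vs untreated → % suppression; n=2.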

Scirpus juncoides [7] = assay: as above; conditions: 120 g/10a; treatment seven days after sowing in flooded paddy pot; assessed 14 days after treatment
Summary of the method: as §4

Echinochloa crus-galli [8] = assay: as above; conditions: 120 g/10a; treatment seven days after sowing in flooded paddy pot; assessed 14 days after treatment
Summary of the method: as §4

Lindernia pyxidaria [9] = assay: as above; conditions: 120 g/10a; treatment seven days after sowing in flooded paddy pot; assessed 14 days after treatment
Summary of the method: as §4

SMILES	Weed suppression rate (%) Monochoria vaginalis (Monochoria vaginalis [1])	Weed suppression rate (%) Scirpus juncoides (Scirpus juncoides [2])	Weed suppression rate (%) Echinochloa crus-galli (Echinochloa crus-galli [3])	Weed suppression rate (%) Lindemia pyxidaria (Lindernia pyxidaria [4])	herbicidal effect, Crabgrass (crabgrass)	herbicidal effect, Chenopodium album (Chenopodium album)	herbicidal effect, Amaranthus viridis (Amaranthus viridis)	herbicidal effect, Echinochloa crus-galli (Echinochloa crus-galli [5])	Weed suppression rate (%) Monochoria vaginalis (Monochoria vaginalis [6])	Weed suppression rate (%) Scirpus juncoides (Scirpus juncoides [7])	Weed suppression rate (%) Echinochloa crus-galli (Echinochloa crus-galli [8])	Weed suppression rate (%) Lindemia pyxidaria (Lindernia pyxidaria [9])
CC(C)N(C(=O)n1cnn(S(C)(=O)=O)c1=O)c1c(F)c(F)cc(F)c1F [Compound 11-17]	80%	100%	100%	90%	60%	30%	100%	70%	100%	100%	100%	70%
CC(C)N(C(=O)n1cnn(S(=O)(=O)C(C)C)c1=O)c1ccccc1F [Compound 11-49]	80%	90%	90%	80%	90%	80%	90%	80%	90%	90%	100%	90%
CC(C)N(C(=O)n1cnn(S(=O)(=O)C2CCCCC2)c1=O)c1ccc(C(F)(F)F)cc1F [Compound 11-311]					100%	30%	60%	90%				
CC(C)N(Cc1ccc(F)cc1F)C(=O)n1cnn(S(=O)(=O)N(C)C)c1=O [Compound 11-1088]	80%	90%	90%	80%					80%	90%	90%	80%
CCN(CC)S(=O)(=O)n1ncn(C(=O)N(c2ccc(F)cc2F)C(C)C)c1=O [Compound 11-1099]					90%	80%	90%	80%				
CN(C(=O)n1cnn(S(C)(=O)=O)c1=O)c1ccc(F)cc1F [Compound 11-1125]	60%	60%	90%	60%					60%	30%	90%	70%
CCS(=O)(=O)n1ncn(C(=O)N(C)c2ccc(F)cc2F)c1=O [Compound 11-1126]	70%	100%	100%	90%					70%	100%	100%	70%
CC(C)S(=O)(=O)n1ncn(C(=O)N(C)c2ccc(F)cc2F)c1=O [Compound 11-1127]	70%	80%	100%	80%					70%	100%	100%	70%
Cc1ccc(S(=O)(=O)n2ncn(C(=O)N(C)c3ccc(F)cc3F)c2=O)cc1 [Compound 11-1131]	70%	100%	100%	100%					90%	80%	100%	70%
CN(C(=O)n1cnn(S(=O)(=O)c2ccc(F)cc2)c1=O)c1ccc(F)cc1F [Compound 11-1137]	80%	100%	100%	90%					80%	100%	100%	70%
Cc1cc(C)c(S(=O)(=O)n2ncn(C(=O)N(C)c3ccc(F)cc3F)c2=O)c(C)c1 [Compound 11-1140]	90%	100%	100%	100%					90%	100%	100%	80%
CN(C(=O)n1cnn(S(=O)(=O)c2cccs2)c1=O)c1ccc(F)cc1F [Compound 11-1147]	70%	70%	100%	100%					90%	100%	100%	70%
COc1ccc(S(=O)(=O)n2ncn(C(=O)N(c3c(F)cccc3F)C(C)C)c2=O)cc1 [Compound 11-1151]	70%	80%	100%	100%					90%	90%	100%	80%
COc1ccc(S(=O)(=O)n2ncn(C(=O)N(c3ccc(F)c(F)c3F)C(C)C)c2=O)cc1 [Compound 11-1153]	90%	60%	100%	100%					100%	90%	100%	70%
O=C(N(CC(F)(F)F)c1ccc(F)cc1F)n1cnn(S(=O)(=O)C2CCCCC2)c1=O [Compound 11-1156]	30%	30%	70%	80%					60%	30%	90%	90%
